Experimental data taken from patent US20260217660A1, “INHIBITORS OF ACTIVIN RECEPTOR TYPE I (ACVRI) AND ACTIVIN RECEPTOR LIKE TYPE I (ACVRLI), AND METHODS USING SAME” (Baylor College of Medicine, priority 2023, published 2026).
Residue numbers refer to the chain shown, from its start.

Key:
[1] = Metabolic stability in mouse liver microsomes; assay type: in vitro ADME; conditions: some cells add hours in brackets
Source text: (§1) Exemplary compounds of the present disclosure have been evaluated for metabolic stability in mouse and human liver microsomes.

[2] = Metabolic stability in human liver microsomes; assay type: in vitro ADME; conditions: some cells add hours in brackets
Source text: as §1

ACVR1^R206H = target: T1, ACVR1^R206H (Homo sapiens, UniProt Q04771, R206H); test: Promega NanoBRET live-cell target engagement, ACVR1 (R206H); assay type: cell-based; conditions: in cellulo; NI = No inhibition at 40 μM
T1 sequence (Q04771 21-509 R206H): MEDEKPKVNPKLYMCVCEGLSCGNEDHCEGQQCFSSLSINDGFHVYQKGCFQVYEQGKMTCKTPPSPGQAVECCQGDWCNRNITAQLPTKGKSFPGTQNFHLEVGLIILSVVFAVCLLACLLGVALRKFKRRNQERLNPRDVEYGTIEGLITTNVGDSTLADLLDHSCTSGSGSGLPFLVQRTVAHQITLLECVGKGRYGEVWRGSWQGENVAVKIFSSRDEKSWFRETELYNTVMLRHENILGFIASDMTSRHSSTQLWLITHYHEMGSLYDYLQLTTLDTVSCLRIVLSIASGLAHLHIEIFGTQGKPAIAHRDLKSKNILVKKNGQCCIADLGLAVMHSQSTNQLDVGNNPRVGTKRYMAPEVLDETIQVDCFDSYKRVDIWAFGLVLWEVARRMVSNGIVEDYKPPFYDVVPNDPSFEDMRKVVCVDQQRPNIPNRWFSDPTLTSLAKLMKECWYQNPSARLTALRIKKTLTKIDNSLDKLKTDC
Source text: (§2) The Promega NanoBRET target engagement system involves cell-based competitive displacement of a fluorescent NanoBRET tracer bound reversibly to a NanoLuc fusion protein. Test compounds displace the tracer dependent on their affinity for the target and reduce […] the NanoBRET signal. […]

ACVR1^WT = target: T2, ACVR1^WT (Homo sapiens, UniProt Q04771); test: Promega NanoBRET live-cell target engagement, ACVR1; assay type: cell-based; conditions: in cellulo; NI = No inhibition at 40 μM
T2 sequence (Q04771 21-509): T1 sequence (Q04771 21-509 R206H) with H186R
Source text: as §2

Compound	Metabolism MLM (Min) [1]	Metabolism HLM (Min) [2]	IC50 (ACVR1^R206H)	IC50 (ACVR1^WT)	Metabolism MLM [1]	Metabolism HLM [2]
CNC(=O)[C@H]1C[C@H](n2c(-c3cc(OC)c(OC)c(OC)c3)nc3ccc(C(=O)NCCCN(C)C)cc32)C1 [CDD-2281, N-(3-(dimethylamino)propyl)-1-((1r,3r)-3-(methylcarbamoyl)cyclobutyl)-2-(3,4,5-trimethoxyphenyl)-1H-benzo[d]imidazole-6-carboxamide]	807.1 (13.4 h) Min	769.1 (12.81 h) Min	> 40 µM	> 40 µM	–	–
CNC(=O)[C@H]1C[C@H](n2c(-c3cc(OC)c(OC)c(OC)c3)nc3ccc(C(=O)NCC4CCN(C)CC4)cc32)C1 [CDD-2282, 1-((1r,3r)-3-(methylcarbamoyl)cyclobutyl)-N-((1-methylpiperidin-4-yl)methyl)-2-(3,4,5-trimethoxyphenyl)-1H-benzo[d]imidazole-6-carboxamide]	220.4 (3.67 h) Min	978 (16.3 h) Min	> 40 µM	> 40 µM	–	–
CNC(=O)[C@H]1C[C@H](n2c(-c3cccc(OC)c3)nc3ccc(C(=O)NCCCN4CCN(c5ccccc5)CC4)cc32)C1 [CDD-2313, 2-(3-methoxyphenyl)-1-((1r,3r)-3-(methylcarbamoyl)cyclobutyl)-N-(3-(4-phenylpiperazin-1-yl)propyl)-1H-benzo[d]imidazole-6-carboxamide]	–	–	3.4 µM	6.17 µM	8.6 min	23 min
CNC(=O)[C@H]1C[C@H](n2c(-c3ccc(OC)c(OC)c3)nc3ccc(C(=O)NCCCN4CCN(c5cccc(C)c5C)CC4)cc32)C1 [CDD-2421, 2-(3,4-dimethoxyphenyl)-N-(3-(4-(2,3-dimethylphenyl)piperazin-1-yl)propyl)-1-((1r,3r)-3-(methylcarbamoyl)cyclobutyl)-1H-benzo[d]imidazole-6-carboxamide]	–	–	2.4 µM	1.24 µM	3.7 min	6 min
COc1cc(F)cc(-c2nc3ccc(C(=O)NCCCN(C)C)cc3n2C2CCC2)c1 [CDD-2617, 1-cyclobutyl-N-(3-(dimethylamino)propyl)-2-(3-fluoro-5-methoxyphenyl)-1H-benzo[d]imidazole-6-carboxamide]	78.5 (1.3 h) Min	194 (3.2 h) Min	13.4 µM	10.7 µM	–	–
COc1cc(-c2nc3ccc(C(=O)NCCCN4CCN(c5ccccc5)C(=O)C4)cc3n2C2CCC2)cc(OC)c1OC [CDD-2790, 1-cyclobutyl-N-(3-(3-oxo-4-phenylpiperazin-1-yl)propyl)-2-(3,4,5-trimethoxyphenyl)-1H-benzo[d]imidazole-6-carboxamide]	–	–	2.27 µM	1.82 µM	6.1 min	9.0 min
COc1cc(-c2nc3ccc(C(=O)NCCCN4CCN(C5CCCCC5)CC4)cc3n2C2CCC2)cc(OC)c1OC [CDD-2792, 1-cyclobutyl-N-(3-(4-cyclohexylpiperazin-1-yl)propyl)-2-(3,4,5-trimethoxyphenyl)-1H-benzo[d]imidazole-6-carboxamide]	–	–	0.849 µM	0.358 µM	10 min	38.3 min
